Reference: PubChem BioAssay AID1259407 (Chemical Carcinogenesis Research Information System (CCRIS), 2018)
The source made the active and inactive calls. No rule for the calls is given here.

Tested on: CCRIS mutagenicity, Ames/micronucleus/aberration tests
Assay: CCRIS mutagenicity studies
[1] = Test System: AMES SALMONELLA TYPHIMURIUM, Strain/Indicator: TA98, Metabolic Activation: NONE, Method: STANDARD PLATE
[2] = Test System: AMES SALMONELLA TYPHIMURIUM, Strain/Indicator: TA100, Metabolic Activation: NONE, Method: STANDARD PLATE
[3] = Test System: AMES SALMONELLA TYPHIMURIUM, Strain/Indicator: TA1537, Metabolic Activation: NONE, Method: STANDARD PLATE

For CN(C)c1ccc(N=Nc2ccccc2)cc1, which mutagenic call (End Point: IN VIVO CHROMOSOMAL ABERRATIONS, Test System: BONE MARROW CELLS, Species: MOUSE, Strain/Sex: SWISS ALBINO, Route: DIET) is on record?
Its mutagenic call is “active; positive (% of aberrations increased with time)”.

What about the mutagenic call (End Point: IN VIVO MICRONUCLEUS, Test System: BONE MARROW CELL ERYTHROCYTES, Species: MOUSE, Strain/Sex: SWISS ALBINO, Route: DIET) of the same compound?
Its mutagenic call is “active; positive (% micronuclei increased with time)”.

What about the mutagenic call (End Point: IN VIVO MICRONUCLEUS, Test System: HEPATOCYTES, Species: RAT, Strain/Sex: FISHER 344 OR SD/MALE, Route: ORAL OR IP) of the same compound?
Its mutagenic call is “active; positive”.

And the mutagenic call (End Point: IN VIVO MICRONUCLEUS, Test System: PERIPHERAL BLOOD RETICULOCYTES, Species: RAT, Strain/Sex: FISHER 344 OR SD/MALE, Route: ORAL OR IP)?
Its mutagenic call is “active; positive”.

And the mutagenic call (End Point: In vivo micronucleus, Test System: Micronucleated hepatocytes, Species: Rat, Strain/Sex: F344/Male, Route: Oral)?
Its mutagenic call is “active; positive (highest dose only; p<0.05)”.

What about the mutagenic call (Test System: AMES SALMONELLA TYPHIMURIUM, Strain/Indicator: TA97, Metabolic Activation: HAMSTER, LIVER, S-9, AROCLOR 1254 (10%), Method: PREINCUBATION) of the same compound?
Its mutagenic call is “inactive; negative”.

And the mutagenic call (Test System: AMES SALMONELLA TYPHIMURIUM, Strain/Indicator: TA97, Metabolic Activation: NONE, Method: PREINCUBATION)?
The mutagenic call was “inactive; negative”.

And the mutagenic call (Test System: AMES SALMONELLA TYPHIMURIUM, Strain/Indicator: TA97, Metabolic Activation: RAT, LIVER, S-9, AROCLOR 1254 (10%), Method: PREINCUBATION)?
Its mutagenic call is “inactive; negative”.

What about the mutagenic call (Test System: AMES SALMONELLA TYPHIMURIUM, Strain/Indicator: TA98, Metabolic Activation: HAMSTER, LIVER, S-9, AROCLOR 1254 (10%), Method: PREINCUBATION) of the same compound?
Its mutagenic call is “active; positive”.

What about the mutagenic call (Test System: AMES SALMONELLA TYPHIMURIUM, Strain/Indicator: TA98, Metabolic Activation: NONE, Method: PREINCUBATION) of the same compound?
The mutagenic call was “inactive; negative”.

What about the mutagenic call (Test System: AMES SALMONELLA TYPHIMURIUM, Strain/Indicator: TA98, Metabolic Activation: RAT, LIVER, S-9, AROCLOR 1254 (10%), Method: PREINCUBATION) of the same compound?
Its mutagenic call is “inactive; negative”.

What about the mutagenic call (Test System: AMES SALMONELLA TYPHIMURIUM, Strain/Indicator: TA98, Metabolic Activation: RAT, LIVER, S-9, AROCLOR 1254, Method: STANDARD PLATE) of the same compound?
Its mutagenic call is “active; positive”.

What about the mutagenic call (Test System: AMES SALMONELLA TYPHIMURIUM, Strain/Indicator: TA98, Metabolic Activation: RAT, LIVER, S-9, AROCLOR, Method: PREINCUBATION) of the same compound?
The mutagenic call was “active; positive”.

And the mutagenic call (Test System: AMES SALMONELLA TYPHIMURIUM, Strain/Indicator: TA98, Metabolic Activation: RAT, LIVER, S-9, AROCLOR, Method: STANDARD PLATE)?
The mutagenic call was “active; positive”.

And the mutagenic call (Test System: AMES SALMONELLA TYPHIMURIUM, Strain/Indicator: TA98, Metabolic Activation: RAT, LIVER, S-9, KC500 OR PHENOBARBITAL, Method: LIQUID SUSPENSION)?
Its mutagenic call is “active; positive”.

And the mutagenic call (Test System: AMES SALMONELLA TYPHIMURIUM, Strain/Indicator: TA100, Metabolic Activation: HAMSTER, LIVER, S-9, AROCLOR 1254 (5%), Method: PREINCUBATION)?
Its mutagenic call is “inactive; negative”.

And the mutagenic call (Test System: AMES SALMONELLA TYPHIMURIUM, Strain/Indicator: TA100, Metabolic Activation: HAMSTER, LIVER, S-9, AROCLOR 1254 (10%), Method: PREINCUBATION)?
Its mutagenic call is “inactive; negative”.

And the mutagenic call (Test System: AMES SALMONELLA TYPHIMURIUM, Strain/Indicator: TA100, Metabolic Activation: HAMSTER, LIVER, S-9, AROCLOR 1254 (30%), Method: PREINCUBATION)?
Its mutagenic call is “active; positive”.

And the mutagenic call (Test System: AMES SALMONELLA TYPHIMURIUM, Strain/Indicator: TA100, Metabolic Activation: NONE, Method: PREINCUBATION)?
Its mutagenic call is “inactive; negative”.

And the mutagenic call (Test System: AMES SALMONELLA TYPHIMURIUM, Strain/Indicator: TA100, Metabolic Activation: RAT, LIVER, S-9, AROCLOR 1254 (5 OR 30%), Method: PREINCUBATION)?
Its mutagenic call is “inactive; negative”.

What about the mutagenic call (Test System: AMES SALMONELLA TYPHIMURIUM, Strain/Indicator: TA100, Metabolic Activation: RAT, LIVER, S-9, AROCLOR 1254, Method: STANDARD PLATE) of the same compound?
The mutagenic call was “active; positive”.

And the mutagenic call (Test System: AMES SALMONELLA TYPHIMURIUM, Strain/Indicator: TA100, Metabolic Activation: RAT, LIVER, S-9, KC500 OR PHENOBARBITAL, Method: LIQUID SUSPENSION)?
Its mutagenic call is “active; positive”.

What about the mutagenic call (Test System: AMES SALMONELLA TYPHIMURIUM, Strain/Indicator: TA1535, Metabolic Activation: HAMSTER, LIVER, S-9, AROCLOR 1254 (10%), Method: PREINCUBATION) of the same compound?
Its mutagenic call is “inactive; negative”.

What about the mutagenic call (Test System: AMES SALMONELLA TYPHIMURIUM, Strain/Indicator: TA1535, Metabolic Activation: NONE, Method: PREINCUBATION) of the same compound?
Its mutagenic call is “inactive; negative”.

What about the mutagenic call (Test System: AMES SALMONELLA TYPHIMURIUM, Strain/Indicator: TA1535, Metabolic Activation: RAT, LIVER, S-9, AROCLOR 1254 (10%), Method: PREINCUBATION) of the same compound?
The mutagenic call was “inactive; negative”.

And the mutagenic call (Test System: CHINESE HAMSTER V-79, Strain/Indicator: V-79/6-THIOGUANINE, Metabolic Activation: NONE, Method: SUSPENSION/PLATE)?
Its mutagenic call is “inactive; negative”.

And the mutagenic call (Test System: CHINESE HAMSTER V-79, Strain/Indicator: V-79/6-THIOGUANINE, Metabolic Activation: RAT, LIVER, S-9, PHENOBARBITAL AND BETA-NAPHTHOFLAVONE, Method: SUSPENSION/PLATE)?
The mutagenic call was “inactive; negative”.

What about the mutagenic call (Test System: E. COLI, Strain/Indicator: WP2 UVRA, Metabolic Activation: HAMSTER, LIVER, S-9, AROCLOR 1254, Method: STANDARD PLATE) of the same compound?
The mutagenic call was “inactive; negative”.

What about the mutagenic call (Test System: E. COLI, Strain/Indicator: WP2 UVRA, Metabolic Activation: HAMSTER, LIVER, S-9, Method: STANDARD PLATE) of the same compound?
Its mutagenic call is “inactive; negative”.

And the mutagenic call (Test System: E. COLI, Strain/Indicator: WP2 UVRA, Metabolic Activation: MOUSE, LIVER, S-9, AROCLOR 1254, Method: STANDARD PLATE)?
The mutagenic call was “inactive; negative”.

And the mutagenic call (Test System: E. COLI, Strain/Indicator: WP2 UVRA, Metabolic Activation: MOUSE, LIVER, S-9, Method: STANDARD PLATE)?
Its mutagenic call is “inactive; negative”.

And the mutagenic call (Test System: E. COLI, Strain/Indicator: WP2 UVRA, Metabolic Activation: NONE, Method: STANDARD PLATE)?
Its mutagenic call is “inactive; negative”.

And the mutagenic call (Test System: E. COLI, Strain/Indicator: WP2 UVRA, Metabolic Activation: RAT, LIVER, S-9, AROCLOR 1254, Method: STANDARD PLATE)?
The mutagenic call was “inactive; negative”.

And the mutagenic call (Test System: E. COLI, Strain/Indicator: WP2 UVRA, Metabolic Activation: RAT, LIVER, S-9, Method: STANDARD PLATE)?
Its mutagenic call is “inactive; negative”.

And the mutagenic call (Test System: MOUSE LYMPHOMA, Strain/Indicator: L5178Y (TK+/TK-), Metabolic Activation: NONE, Method: SUSPENSION/PLATE)?
The mutagenic call was “inactive; negative”.

What about the mutagenic call (Test System: MOUSE LYMPHOMA, Strain/Indicator: L5178Y (TK+/TK-), Metabolic Activation: RAT, LIVER, S-9, AROCLOR 1254, Method: SUSPENSION/PLATE) of the same compound?
Its mutagenic call is “active; positive”.

For [N-]=[N+]=NC[C@H]1O[C@H](O)[C@@H](O)[C@H](O)[C@@H]1O, which mutagenic call [1] is on record?
Its mutagenic call is “inactive; negative”.

And the mutagenic call [2]?
The mutagenic call was “active; positive”.

How did the mutagenic call [3] turn out when Nc1ccc(Nc2c3ccccc3nc3ccccc23)cc1 was run?
Its mutagenic call is “active; positive”.

Which results are given for COc1ccc2nc3cc(Cl)ccc3c(NCCCNCCCl)c2n1?
mutagenic call [1]: active; positive; mutagenic call [2]: active; positive; mutagenic call (Test System: AMES SALMONELLA TYPHIMURIUM, Strain/Indicator: TA1535, Metabolic Activation: NONE, Method: STANDARD PLATE): inactive; negative; mutagenic call (Test System: AMES SALMONELLA TYPHIMURIUM, Strain/Indicator: TA1536, Metabolic Activation: NONE, Method: STANDARD PLATE): active; positive; mutagenic call [3]: active; positive; mutagenic call (Test System: AMES SALMONELLA TYPHIMURIUM, Strain/Indicator: TA1538, Metabolic Activation: NONE, Method: STANDARD PLATE): active; positive; mutagenic call (Test System: CHO/HGPRT, Strain/Indicator: CHO-K1-BH4, Metabolic Activation: NONE, Method: STANDARD PLATE): active; positive
